Reference: patent publication US20260042802A1, “POLYPEPTIDE AND USE THEREOF” (priority 2024, published 2026)

System: mouse acetate acid writhing model
Test: Mouse acetate acid writhing model
Format: in vivo, C57BL/6 mice
Settings: Diclofenac Sodium Group, 30 mg/kg i.p. once daily for 7 days; 8 mice
Source text: Seventy SPF-grade healthy C57BL/6 mice, half male and half female, weighing 22-25 g and 8-10 weeks old, are randomly selected. Seventy C57BL/6 mice are weighed and numbered in ascending order of body weight (No. S1-S70). The mice are randomly divided into seven groups in terms of the randomized numerical table method, which are the saline group and the experimental groups, among which the experimental groups include the PPN-01 group, the PPN-04 group, the PPN-06 group, the PPN-11 group, the PPN-12 group, and the PPN-16 group. The dosing concentration (i.e., the concentration of added polypeptides PPN-01, PPN-04, PPN-06, PPN-11, PPN-12, and PPN-16) in each group is 10 mg/kg, with 10 mice in each group.
(§1) Saline Group: 10 healthy mice are routinely reared for one week; the saline is intraperitoneally injected once daily at a concentration of 10 ml/kg for 7 consecutive days; 15 min after the last injection is finished, 0.7% glacial acetic acid (10 ml/kg) is intraperitoneally injected; and each mouse is observed for their writhing behaviors.
Experimental Group: 10 healthy mice are routinely reared for one week; 10 ml/kg of different polypeptides are injected intraperitoneally at a concentration of 0.1 mL/10 g once daily for 7 consecutive days; 15 min after the last injection is finished, 0.7% glacial acetic acid (10 ml/kg) is intraperitoneally injected; and each mouse is observed for their behaviors in writhing.
During the above experiments, the time of first writhing (writhing latency) and the number of writhing in each mouse within 15 min are recorded immediately after the injection of glacial acetic acid solution in each group of mice. When behavioral responses such as inward concavity of the abdomen, extension of the torso and hind limbs, and elevation of the buttocks occur, it is considered to be a complete writhing response, and the results are shown in Table 3 and FIG. 6.
Forty SPF-grade healthy C57BL/6 mice, half male and half female, weighing 22-25 g and 8-10 weeks old, are randomly selected. Forty C57BL/6 mice are weighed and numbered in ascending order of body weight (No. 1 to No. 40). The mice are randomly divided into five groups according to the randomized numerical table method, namely, the saline group, the low-concentration group (2.5 mg/kg), the medium-concentration group (10 mg/kg), the high-concentration group (40 mg/kg), and the diclofenac sodium group (30 mg/kg), with eight mice in each group.
as §1, with “Group: 8” for “Group: 10”, “their behaviors in writhing. […]” for “their writhing behaviors.”

O=C(O)Cc1ccccc1Nc1c(Cl)cccc1Cl [Diclofenac Sodium, diclofenac sodium, reference compound]
Inhibiting Rate (writhing): 77.6%
